Experimental findings from US20170008921A1, “C-3 NOVEL TRITERPENONE WITH C-28 REVERSE AMIDE DERIVATIVES AS HIV INHIBITORS” (HETERO RESEARCH FOUNDATION, priority 2015, published 2017) are described below.

The nature of data set [1]: Single dose oral pharmacokinetic study. The class given is in vivo. Particulars: mouse, Mice oral PK @30 mg/kg, plasma, vehicle 10% Solutol+20% PEG; for AUC(0-t): read-out: AUC0-t; for Cmax: read-out: Cmax. The essentials: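 Rats or mice dosed orally at 30 mg/kg in 10% Solutol+20% PEG. Acetonitrile precipitation, then LC-MS/MS quantification for PK parameters.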
The nature of data set [2]: Cyto-toxicity (MTT assay). The class given is cell-based.

Take `CC(C)C1=C2[C@H]3CC[C@@H]4[C@@]5(C)CC[C@H](OC(=O)[C@H]6C[C@@H](C(=O)O)C6(C)C)C(C)(C)[C@@H]5CC[C@@]4(C)[C@]3(C)CC[C@@]2(NC(=O)C(C)(C)NC(=O)c2cccnc2N2CCOCC2)CC1=O` [Example 31, (1R,3S)-3-((((3aR,5aR,5bR,7aR,9S,11aR,11bR,13aS)-1-isopropyl-5a,5b,8,8,11a-pentamethyl-3a-(2-methyl-2-(2-morpholinonicotinamido)propan amido)-2-oxo-3,3a,4,5,5a,5b,6,7,7a,8,9,10,11,11a,11b,12,13,13a-octadecahydro-2H-cyclopenta[a]chrysen-9-yl)oxy)carbonyl)-2,2-dimethylcyclobutane-1-carboxylic acid]: in data set [1], the AUC(0-t) turned out to be 255 µg·h/mL and the Cmax came to 18700 ng/mL. In data set [2], this compound showed a viability at 4 days, 0.001 µM of 81%; a viability at 4 days, 0.003 µM of 86%; a viability at 4 days, 0.01 µM of 54%.

Consider `CC(C)C1=C2[C@H]3CC[C@@H]4[C@@]5(C)CC[C@H](OC(=O)[C@H]6C[C@@H](C(=O)O)C6(C)C)C(C)(C)[C@@H]5CC[C@@]4(C)[C@]3(C)CC[C@@]2(NC(=O)C2(NC(=O)c3ccc(Cl)cc3)CC2)CC1=O` [Example 37, (1R,3S)-3-((((3aR,5aR,5bR,7aR,9S,11aR,11bR,13aS)-3a-(1-(4-chlorobenzamido)cyclopropane-1-carboxamido)-1-isopropyl-5a,5b,8,8,11a-pentamethyl-2-oxo-3,3a,4,5,5a,5b,6,7,7a,8,9,10,11,11a,11b,12,13,13a-octadecahydro-2H-cyclopenta[a]chrysen-9-yl)oxy)carbonyl)-2,2-dimethylcyclobutane-1-carboxylic acid], for which, in data set [1], the AUC(0-t) was 874 µg·h/mL and the Cmax was found to be 38800 ng/mL. Besides, in data set [2], the viability at 4 days, 0.01 µM amounted to 26%; the viability at 4 days, 0.1 µM worked out at 4%; the viability at 4 days, 1 µM amounted to 1%.

As to `Cc1ccc(C(=O)NC2(C(=O)N[C@@]34CC[C@]5(C)[C@H](CC[C@@H]6[C@@]7(C)CC[C@H](OC(=O)[C@H]8C[C@@H](C(=O)O)C8(C)C)C(C)(C)[C@@H]7CC[C@]65C)C3=C(C(C)C)C(=O)C4)CC2)cn1` [Example 38, (1R,3S)-3-((((3aR,5aR,5bR,7aR,9S,11aR,11bR,13aS)-1-isopropyl-5a,5b,8,8,11a-pentamethyl-3a-(1-(6-methylnicotinamido)cyclopropane-1-carbox amido)-2-oxo-3,3a,4,5,5a,5b,6,7,7a,8,9,10,11,11a,11b,12,13,13a-octadecahydro-2H-cyclopenta[a]chrysen-9-yl)oxy)carbonyl)-2,2-dimethylcyclobutane-1-carboxylic acid], in data set [1], the AUC(0-t) was found to be 114 µg·h/mL and the Cmax amounted to 10100 ng/mL. Besides, in data set [2], the viability at 4 days, 0.01 µM was 20%; the viability at 4 days, 0.1 µM was found to be 9%; the viability at 4 days, 1 µM was found to be 2%.

For the compound `Cc1ccc(C(=O)NC2(C(=O)N[C@@]34CC[C@]5(C)[C@H](CC[C@@H]6[C@@]7(C)CC[C@H](OC(=O)[C@H]8C[C@@H](C(=O)O)C8(C)C)C(C)(C)[C@@H]7CC[C@]65C)C3=C(C(C)C)C(=O)C4)CC2)cc1` [Example 40, (1R,3S)-3-((((3aR,5aR,5bR,7aR,9S,11aR,11bR,13aS)-1-isopropyl-5a,5b,8,8,11a-pentamethyl-3a-(1-(4-methylbenzamido)cyclopropane-1-carboxamido)-2-oxo-3,3a,4,5,5a,5b,6,7,7a,8,9,10,11,11a,11b,12,13,13a-octadecahydro-2H-cyclopenta[a]chrysen-9-yl)oxy)carbonyl)-2,2-dimethylcyclobutane-1-carboxylic acid], in data set [1], the AUC(0-t) worked out at 343 µg·h/mL and the Cmax stood at 20300 ng/mL. Moreover, in data set [2], the viability at 4 days, 0.01 µM was 26%; the viability at 4 days, 0.1 µM came out at 2%; the viability at 4 days, 1 µM is 1%.

On to `CC(C)C1=C2[C@H]3CC[C@@H]4[C@@]5(C)CC[C@H](OC(=O)[C@H]6C[C@@H](C(=O)O)C6(C)C)C(C)(C)[C@@H]5CC[C@@]4(C)[C@]3(C)CC[C@@]2(NC(=O)C2(NC(=O)c3ccc(Cl)cc3)CCC2)CC1=O` [Example 42, (1R,3S)-3-((((3aR,5aR,5bR,7aR,9S,11aR,11bR,13aS)-3a-(1-(4-chlorobenzamido)cyclobutane-1-carboxamido)-1-isopropyl-5a,5b,8,8,11a-pentamethyl-2-oxo-3,3a,4,5,5a,5b,6,7,7a,8,9,10,11,11a,11b,12,13,13a-octadecahydro-2H-cyclopenta[a]chrysen-9-yl)oxy)carbonyl)-2,2-dimethylcyclobutane-1-carboxylic acid], for which, in data set [1], the AUC(0-t) was 481 µg·h/mL and the Cmax turned out to be 22900 ng/mL. For the same compound, in data set [2], the viability at 4 days, 0.01 µM came to 27%; the viability at 4 days, 0.1 µM amounted to 5%; the viability at 4 days, 1 µM is 4%.

`Cc1ccc(C(=O)NC2(C(=O)N[C@@]34CC[C@]5(C)[C@H](CC[C@@H]6[C@@]7(C)CC[C@H](OC(=O)[C@H]8C[C@@H](C(=O)O)C8(C)C)C(C)(C)[C@@H]7CC[C@]65C)C3=C(C(C)C)C(=O)C4)CCC2)cn1` [Example 43, (1R,3S)-3-((((3aR,5aR,5bR,7aR,9S,11aR,11bR,13aS)-1-isopropyl-5a,5b,8,8,11a-pentamethyl-3a-(1-(6-methylnicotinamido)cyclobutane-1-carboxamido)-2-oxo-3,3a,4,5,5a,5b,6,7,7a,8,9,10,11,11a,11b,12,13,13a-octadecahydro-2H-cyclopenta[a]chrysen-9-yl)oxy)carbonyl)-2,2-dimethylcyclobutane-1-carboxylic acid]: in data set [1], the AUC(0-t) was 320 µg·h/mL and the Cmax amounted to 31300 ng/mL. In data set [2], this compound registered a viability at 4 days, 0.01 µM of 76%; a viability at 4 days, 0.1 µM of 26%; a viability at 4 days, 1 µM of 3%.

For the compound `CC(C)C1=C2[C@H]3CC[C@@H]4[C@@]5(C)CC[C@H](OC(=O)[C@H]6C[C@@H](C(=O)O)C6(C)C)C(C)(C)[C@@H]5CC[C@@]4(C)[C@]3(C)CC[C@@]2(NC(=O)C2(NC(=O)c3ncccn3)CCC2)CC1=O` [Example 44, (1R,3S)-3-((((3aR,5aR,5bR,7aR,9S,11aR,11bR,13aS)-1-isopropyl-5a,5b,8,8,11a-pentamethyl-2-oxo-3a-(1-(pyrimidine-2-carboxamido)cyclobutane-1-carboxamido)-3,3a,4,5,5a,5b,6,7,7a,8,9,10,11,11a,11b,12,13,13a-octadecahydro-2H-cyclopenta[a]chrysen-9-yl)oxy)carbonyl)-2,2-dimethylcyclobutane-1-carboxylic acid], in data set [1], the AUC(0-t) was 154 µg·h/mL and the Cmax amounted to 19800 ng/mL. Further, in data set [2], the viability at 4 days, 0.001 µM was determined as 84%; the viability at 4 days, 0.003 µM was determined as 80%; the viability at 4 days, 0.01 µM stood at 58%.

As to `CC(C)C1=C2[C@H]3CC[C@@H]4[C@@]5(C)CC[C@H](OC(=O)[C@H]6C[C@@H](C(=O)O)C6(C)C)C(C)(C)[C@@H]5CC[C@@]4(C)[C@]3(C)CC[C@@]2(NC(=O)C2(NC(=O)c3ccc(Cl)cc3)CCCC2)CC1=O` [Example 46, (1R,3S)-3-((((3aR,5aR,5bR,7aR,9S,11aR,11bR,13aS)-3a-(1-(4-chlorobenzamido)cyclopentane-1-carboxamido)-1-isopropyl-5a,5b,8,8,11a-pentamethyl-2-oxo-3,3a,4,5,5a,5b,6,7,7a,8,9,10,11,11a,11b,12,13,13a-octadecahydro-2H-cyclopenta[a]chrysen-9-yl)oxy)carbonyl)-2,2-dimethylcyclobutane-1-carboxylic acid], in data set [1], the AUC(0-t) stood at 836 µg·h/mL and the maximum concentration (Cmax) came to 29500 ng/mL. For the same compound, in data set [2], the viability at 4 days, 0.01 µM was found to be 52%; the viability at 4 days, 0.1 µM was found to be 12%; the viability at 4 days, 1 µM was found to be 4%.

As for `Cc1ccc(C(=O)NC2(C(=O)N[C@@]34CC[C@]5(C)[C@H](CC[C@@H]6[C@@]7(C)CC[C@H](OC(=O)[C@H]8C[C@@H](C(=O)O)C8(C)C)C(C)(C)[C@@H]7CC[C@]65C)C3=C(C(C)C)C(=O)C4)CCCC2)cn1` [Example 47, (1R,3S)-3-((((3aR,5aR,5bR,7aR,9S,11aR,11bR,13aS)-1-isopropyl-5a,5b,8,8,11a-pentamethyl-3a-(1-(6-methylnicotinamido)cyclopentane-1-carboxamido)-2-oxo-3,3a,4,5,5a,5b,6,7,7a,8,9,10,11,11a,11b,12,13,13a-octadecahydro-2H-cyclopenta[a]chrysen-9-yl)oxy)carbonyl)-2,2-dimethylcyclobutane-1-carboxylic acid], in data set [1], the AUC(0-t) stood at 538 µg·h/mL and the Cmax worked out at 23600 ng/mL. For the same compound, in data set [2], the viability at 4 days, 0.01 µM amounted to 75%; the viability at 4 days, 0.1 µM is 14%; the viability at 4 days, 1 µM came out at 4%.

`CC(C)C1=C2[C@H]3CC[C@@H]4[C@@]5(C)CC[C@H](OC(=O)[C@H]6C[C@@H](C(=O)O)C6(C)C)C(C)(C)[C@@H]5CC[C@@]4(C)[C@]3(C)CC[C@@]2(NC(=O)C2(NC(=O)c3ccc(Cl)cc3)CCCCC2)CC1=O` [Example 48, (1R,3S)-3-((((3aR,5aR,5bR,7aR,9S,11aR,11bR,13aS)-3a-(1-(4-chlorobenzamido)cyclohexane-1-carboxamido)-1-isopropyl-5a,5b,8,8,11a-pentamethyl-2-oxo-3,3a,4,5,5a,5b,6,7,7a,8,9,10,11,11a,11b,12,13,13a-octadecahydro-2H-cyclopenta[a]chrysen-9-yl)oxy)carbonyl)-2,2-dimethylcyclobutane-1-carboxylic acid]: in data set [1], the AUC(0-t) is 477 µg·h/mL and the Cmax was determined as 20300 ng/mL. For the same compound, in data set [2], the viability at 4 days, 0.01 µM worked out at 44%; the viability at 4 days, 0.1 µM was 12%; the viability at 4 days, 1 µM was found to be 4%.
